In assay [1] the test system is B. subtilis 168.
Assay [2] relates to S. aureus Newman.
For assay [3], the system named is S. pneumoniae D39V.
Assay [4] has as its system S. aureus DSM 20231.
Assay [5] relates to B. subtilis 168. Kind of assay: fitness (endpoint OD595 vs no drug) (fraction); higher = more growth. A digest of the protocol:
(§1)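 Fitness was defined as the optical density at the transition into stationary phase relative to the robust mean of no-drug control wells. Values were capped at 1. Cultures were started at OD595 0.01 in 384-well plates (30 µl, or 55 µl for S. pneumoniae) in TSB, LB Lennox or CY at 37 °C. OD595 was recorded every 30 min over 14 h, with the first reading subtracted as background.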

The subject of assay [6] is S. aureus Newman. Described as above. A digest of the protocol:
as §1

Assay [7] relates to S. pneumoniae D39V. Described as above. A digest of the protocol: as §1
Assay [8] relates to S. aureus DSM 20231. Described as above. The procedure, abridged: as §1

Converted amounts (≈) assume the structure as drawn.

A word on the MIC: it is the least concentration at which growth counts as inhibited. Turning to `CO[C@@]12[C@H](COC(N)=O)C3=C(C(=O)C(C)=C(N)C3=O)N1C[C@@H]1N[C@@H]12` [Mitomycin C], the minimum inhibitory concentration (MIC) in assay [1] was 0.25 µg/mL (≈ 0.748 µM); in assay [2], 0.069 µg/mL (≈ 0.206 µM); in assay [3], 0.062 µg/mL (≈ 0.185 µM); in assay [4], 0.069 µg/mL (≈ 0.206 µM). For the same molecule, the fitness in assay [5] (0.0312 µg/mL) was 0.78; in assay [5] (0.0625 µg/mL), 0.582; in assay [5] (0.125 µg/mL), 0.0244; in assay [6] (0.0156 µg/mL), 0.71; in assay [6] (0.0312 µg/mL) it was 0.618; in assay [6] (0.0625 µg/mL), 0.452. The fitness in assay [7] (0.002 µg/mL) was determined as 0.823; in assay [7] (0.004 µg/mL) it was 0.754; in assay [7] (0.008 µg/mL), 0.554; in assay [8] (0.0156 µg/mL) it was 0.844; in assay [8] (0.0312 µg/mL), 0.775; in assay [8] (0.0625 µg/mL), 0.59. The fitness in assay [8] (0.1562 µg/mL) came to 0.886.
For `CO[C@@H]1[C@@H](OC(N)=O)[C@@H](O)[C@H](Oc2ccc3c(O)c(NC(=O)c4ccc(O)c(CC=C(C)C)c4)c(=O)oc3c2C)OC1(C)C` [Novobiocin], the minimum inhibitory concentration (MIC) in assay [2] came out at 0.05 µg/mL (≈ 0.0816 µM); in assay [3], 2.5 µg/mL (≈ 4.08 µM); in assay [4], 0.05 µg/mL (≈ 0.0816 µM). Further, the fitness in assay [5] (0.0125 µg/mL) was 0.921; in assay [5] (0.025 µg/mL) it was 0.956; in assay [5] (0.05 µg/mL) it was 0.986; in assay [5] (0.1 µg/mL), 0.993; in assay [5] (0.2 µg/mL) it was not below 1.
As for `CN[C@H](CC(C)C)C(=O)N[C@H]1C(=O)N[C@@H](CC(N)=O)C(=O)N[C@H]2C(=O)N[C@H]3C(=O)N[C@H](C(=O)N[C@H](C(=O)O)c4cc(O)cc(O)c4-c4cc3ccc4O)[C@H](O[C@H]3C[C@](C)(N)[C@@H](O)[C@H](C)O3)c3ccc(c(Cl)c3)Oc3cc2cc(c3O[C@@H]2O[C@H](CO)[C@@H](O)[C@H](O)[C@H]2O[C@H]2C[C@](C)(NCc3ccc(-c4ccc(Cl)cc4)cc3)[C@@H](O)[C@H](C)O2)Oc2ccc(cc2Cl)[C@H]1O` [Oritavancin], the minimal inhibitory concentration (MIC) in assay [2] and in assay [4] was 4.5 µg/mL (≈ 2.51 µM) throughout.
Turning to `CO[C@H]1/C=C/O[C@@]2(C)Oc3c(C)c(O)c4c(O)c(c(/C=N/N5CCN(C)CC5)c(O)c4c3C2=O)NC(=O)/C(C)=C\C=C\[C@H](C)[C@H](O)[C@@H](C)[C@@H](O)[C@@H](C)[C@H](OC(C)=O)[C@@H]1C` [Rifampicin], the minimal inhibitory concentration (MIC) came to 0.125 µg/mL (≈ 0.152 µM) in assay [1], 0.035 µg/mL (≈ 0.0425 µM) in assay [2], 0.4 µg/mL (≈ 0.486 µM) in assay [3] and 0.018 µg/mL (≈ 0.0219 µM) in assay [4]. The fitness in assay [7] (0.025 µg/mL) is 0.961; in assay [7] (0.05 µg/mL), 0.904; in assay [7] (0.1 µg/mL) it was 0.322; in assay [7] (0.2 µg/mL), 0.144.
In the case of `CN[C@@H]1[C@H](O)[C@H](NC)[C@H]2O[C@@]3(O)C(=O)C[C@@H](C)O[C@H]3O[C@@H]2[C@H]1O` [Spectinomycin], the MIC was 8 µg/mL (≈ 24.1 µM) in assay [1], 16 µg/mL (≈ 48.1 µM) in assay [2], 64 µg/mL (≈ 193 µM) in assay [3] and 16 µg/mL (≈ 48.1 µM) in assay [4]. Moreover, the fitness is 0.992 in assay [5] (2 µg/mL); 0.964 in assay [5] (4 µg/mL); 0.941 in assay [5] (8 µg/mL); 0.963 in assay [6] (4 µg/mL); 0.93 in assay [6] (8 µg/mL); 0.893 in assay [6] (16 µg/mL). For the same molecule, the fitness was determined as 0.956 in assay [7] (4 µg/mL); 0.865 in assay [7] (8 µg/mL); 0.702 in assay [7] (16 µg/mL); 0.966 in assay [8] (4 µg/mL); 0.961 in assay [8] (8 µg/mL); 0.851 in assay [8] (16 µg/mL).

The values are drawn from the supplement of paper PMC10627819.
